Patent US9980943B2, “Methods of treating muscular dystrophy” (BOARD OF REGENTS OF THE NEVADA SYSTEM OF HIGHER EDUCATION, …, priority 2013, dated 2018)

Tests used:
Assay type in all cases: cell-based, mouse
[1] = tested on: α7 integrin (LacZ reporter in α7βgal+/− myoblasts); assay: Myoblast α7+/LacZ integrin FDG assay (Burkin assay in myoblasts, 96-well); conditions: 96-well; for Burkin Assay in Myoblasts, signal relative to DMSO: α7+/LacZ myoblasts; for Burkin Assay in Myoblasts, value relative to DMSO: SU9516 analogs, N=3-6
[2] = tested on: β-galactosidase in CMV-LacZ C2C12 myotubes; assay: CMV-LacZ secondary screen in C2C12 myotubes (β-Gal stabilizing assay); conditions: for CMV-LACZ in Myotubes, signal relative to DMSO: C2C12 CMV-LacZ myotubes, fold relative to DMSO; for CMV-LACZ in Myotubes, value relative to DMSO: SU9516 analogs, C2C12 CMV-LacZ, N=2
Summary of the method: (§1)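 β-gal stabilization was measured in C2C12 myoblasts or myotubes stably transfected with a CMV-driven LacZ construct, using the FDG β-gal assay. Compounds were tested in dose-response at 0.5, 1, 5, 10, 20 and 40 μM, with two replicates per point.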

[3] = tested on: β-galactosidase in CMV-LacZ C2C12 myoblasts; assay: CMV-LacZ secondary screen in C2C12 myoblasts (β-Gal stabilizing assay); conditions: for CMV-LACZ in Myoblasts (β-galactosidase activity relative to DMSO): CMV-LacZ C2C12 myoblasts; for CMV-LACZ in Myoblasts, value relative to DMSO: SU9516 analogs, C2C12 CMV-LacZ, N=2
Summary of the method: as §1

[4] = tested on: α7 integrin (LacZ reporter in α7+/LacZ myotubes); assay: Myotube α7 integrin FDG assay (Burkin assay in myotubes, 96-well); conditions: for Burkin Assay in Myotubes, value relative to DMSO: SU9516 analogs, 96-well, N=3-6

CC(C)CN(C(=O)c1cccc(Cl)c1)c1c(N)n(Cc2ccccc2)c(=O)[nH]c1=O [MLS002163670-01]
Burkin Assay in Myoblasts, signal relative to DMSO ([1]; 0.5 uM): 1.117 | Burkin Assay in Myoblasts, signal relative to DMSO ([1]; 1 uM): 1.234 | Burkin Assay in Myoblasts, signal relative to DMSO ([1]; 5 uM): 1.012 | Burkin Assay in Myoblasts, signal relative to DMSO ([1]; 10 uM): 0.9468 | Burkin Assay in Myoblasts, signal relative to DMSO ([1]; 20 uM): 0.8972 | Burkin Assay in Myoblasts, signal relative to DMSO ([1]; 40 uM): 0.7779 | CMV-LACZ in Myotubes, signal relative to DMSO ([2]; 0.5 uM): 0.9237 | CMV-LACZ in Myotubes, signal relative to DMSO ([2]; 1 uM): 1.2044 | CMV-LACZ in Myotubes, signal relative to DMSO ([2]; 5 uM): 0.9788 | CMV-LACZ in Myotubes, signal relative to DMSO ([2]; 10 uM): 0.8898 | CMV-LACZ in Myotubes, signal relative to DMSO ([2]; 20 uM): 1.1659 | CMV-LACZ in Myotubes, signal relative to DMSO ([2]; 40 uM): 1.1235 | CMV-LACZ in Myoblasts (β-galactosidase activity relative to DMSO) ([3]; 0.5 uM): 1.1806 | CMV-LACZ in Myoblasts (β-galactosidase activity relative to DMSO) ([3]; 1 uM): 0.8738 | CMV-LACZ in Myoblasts (β-galactosidase activity relative to DMSO) ([3]; 5 uM): 0.8671 | CMV-LACZ in Myoblasts (β-galactosidase activity relative to DMSO) ([3]; 10 uM): 0.9725 | CMV-LACZ in Myoblasts (β-galactosidase activity relative to DMSO) ([3]; 20 uM): 0.8611 | CMV-LACZ in Myoblasts (β-galactosidase activity relative to DMSO) ([3]; 40 uM): 1.4715 | Burkin Assay in Myotubes, α7 integrin LacZ reporter signal relative to DMSO ([4]; 0.5 uM): 1.223 | Burkin Assay in Myotubes, α7 integrin LacZ reporter signal relative to DMSO ([4]; 1 uM): 1.294 | Burkin Assay in Myotubes, α7 integrin LacZ reporter signal relative to DMSO ([4]; 5 uM): 0.9778 | Burkin Assay in Myotubes, α7 integrin LacZ reporter signal relative to DMSO ([4]; 10 uM): 1.072 | Burkin Assay in Myotubes, α7 integrin LacZ reporter signal relative to DMSO ([4]; 20 uM): 0.8526 | Burkin Assay in Myotubes, α7 integrin LacZ reporter signal relative to DMSO ([4]; 40 uM): 0.735

O=C1Nc2ccccc2/C1=C/c1cccnc1 [MLS000682748-01]
Burkin Assay in Myoblasts, value relative to DMSO ([1]; 0.5 uM): 1.259 | Burkin Assay in Myoblasts, value relative to DMSO ([1]; 1 uM): 1.162 | Burkin Assay in Myoblasts, value relative to DMSO ([1]; 5 uM): 0.8923 | Burkin Assay in Myoblasts, value relative to DMSO ([1]; 10 uM): 0.765 | Burkin Assay in Myoblasts, value relative to DMSO ([1]; 20 uM): 0.4669 | Burkin Assay in Myoblasts, value relative to DMSO ([1]; 40 uM): 0.2472 | CMV-LACZ in Myotubes, value relative to DMSO ([2]; 0.5 uM): 0.9356 | CMV-LACZ in Myotubes, value relative to DMSO ([2]; 1 uM): 0.8459 | CMV-LACZ in Myotubes, value relative to DMSO ([2]; 5 uM): 0.8790 | CMV-LACZ in Myotubes, value relative to DMSO ([2]; 10 uM): 0.9205 | CMV-LACZ in Myotubes, value relative to DMSO ([2]; 20 uM): 1.1753 | CMV-LACZ in Myotubes, value relative to DMSO ([2]; 40 uM): 1.1071 | CMV-LACZ in Myoblasts, value relative to DMSO ([3]; 0.5 uM): 0.9075 | CMV-LACZ in Myoblasts, value relative to DMSO ([3]; 1 uM): 0.9666 | CMV-LACZ in Myoblasts, value relative to DMSO ([3]; 5 uM): 1.0215 | CMV-LACZ in Myoblasts, value relative to DMSO ([3]; 10 uM): 0.9959 | CMV-LACZ in Myoblasts, value relative to DMSO ([3]; 20 uM): 0.3893 | CMV-LACZ in Myoblasts, value relative to DMSO ([3]; 40 uM): 0.2419 | Burkin Assay in Myotubes, value relative to DMSO ([4]; 0.5 uM): 0.9801 | Burkin Assay in Myotubes, value relative to DMSO ([4]; 1 uM): 1.211 | Burkin Assay in Myotubes, value relative to DMSO ([4]; 5 uM): 1.147 | Burkin Assay in Myotubes, value relative to DMSO ([4]; 10 uM): 1.085 | Burkin Assay in Myotubes, value relative to DMSO ([4]; 20 uM): 0.743 | Burkin Assay in Myotubes, value relative to DMSO ([4]; 40 uM): 0.6206

NC(=O)c1sc2nc3c(cc2c1N)CCC3 [MLS000707378-01]
Burkin Assay in Myoblasts, signal relative to DMSO ([1]; 0.5 uM): 1.003 | Burkin Assay in Myoblasts, signal relative to DMSO ([1]; 1 uM): 1.046 | Burkin Assay in Myoblasts, signal relative to DMSO ([1]; 5 uM): 1.024 | Burkin Assay in Myoblasts, signal relative to DMSO ([1]; 10 uM): 1.076 | Burkin Assay in Myoblasts, signal relative to DMSO ([1]; 20 uM): 1.317 | Burkin Assay in Myoblasts, signal relative to DMSO ([1]; 40 uM): 1.493 | CMV-LACZ in Myotubes, signal relative to DMSO ([2]; 0.5 uM): 1.0537 | CMV-LACZ in Myotubes, signal relative to DMSO ([2]; 1 uM): 1.3937 | CMV-LACZ in Myotubes, signal relative to DMSO ([2]; 5 uM): 0.9294 | CMV-LACZ in Myotubes, signal relative to DMSO ([2]; 10 uM): 1.0300 | CMV-LACZ in Myotubes, signal relative to DMSO ([2]; 20 uM): 0.9689 | CMV-LACZ in Myotubes, signal relative to DMSO ([2]; 40 uM): 0.9167 | CMV-LACZ in Myoblasts (β-galactosidase activity relative to DMSO) ([3]; 0.5 uM): 1.0175 | CMV-LACZ in Myoblasts (β-galactosidase activity relative to DMSO) ([3]; 1 uM): 1.0883 | CMV-LACZ in Myoblasts (β-galactosidase activity relative to DMSO) ([3]; 5 uM): 0.8309 | CMV-LACZ in Myoblasts (β-galactosidase activity relative to DMSO) ([3]; 10 uM): 0.8072 | CMV-LACZ in Myoblasts (β-galactosidase activity relative to DMSO) ([3]; 20 uM): 0.8667 | CMV-LACZ in Myoblasts (β-galactosidase activity relative to DMSO) ([3]; 40 uM): 0.6548 | Burkin Assay in Myotubes, α7 integrin LacZ reporter signal relative to DMSO ([4]; 0.5 uM): 0.8716 | Burkin Assay in Myotubes, α7 integrin LacZ reporter signal relative to DMSO ([4]; 1 uM): 0.8512 | Burkin Assay in Myotubes, α7 integrin LacZ reporter signal relative to DMSO ([4]; 5 uM): 0.8899 | Burkin Assay in Myotubes, α7 integrin LacZ reporter signal relative to DMSO ([4]; 10 uM): 1.241 | Burkin Assay in Myotubes, α7 integrin LacZ reporter signal relative to DMSO ([4]; 20 uM): 1.046 | Burkin Assay in Myotubes, α7 integrin LacZ reporter signal relative to DMSO ([4]; 40 uM): 1.051

COc1ccc(C(=O)Nc2ccc(Cl)cn2)cc1Cl [MLS000089748-01]
Burkin Assay in Myoblasts, signal relative to DMSO ([1]; 0.5 uM): 1.145 | Burkin Assay in Myoblasts, signal relative to DMSO ([1]; 1 uM): 1.168 | Burkin Assay in Myoblasts, signal relative to DMSO ([1]; 5 uM): 0.8656 | Burkin Assay in Myoblasts, signal relative to DMSO ([1]; 10 uM): 0.7355 | Burkin Assay in Myoblasts, signal relative to DMSO ([1]; 20 uM): 0.2402 | Burkin Assay in Myoblasts, signal relative to DMSO ([1]; 40 uM): 0.1766 | CMV-LACZ in Myotubes, signal relative to DMSO ([2]; 0.5 uM): 0.9527 | CMV-LACZ in Myotubes, signal relative to DMSO ([2]; 1 uM): 0.9809 | CMV-LACZ in Myotubes, signal relative to DMSO ([2]; 5 uM): 1.1104 | CMV-LACZ in Myotubes, signal relative to DMSO ([2]; 10 uM): 0.9813 | CMV-LACZ in Myotubes, signal relative to DMSO ([2]; 20 uM): 1.3800 | CMV-LACZ in Myotubes, signal relative to DMSO ([2]; 40 uM): 1.2820 | CMV-LACZ in Myoblasts (β-galactosidase activity relative to DMSO) ([3]; 0.5 uM): 1.2129 | CMV-LACZ in Myoblasts (β-galactosidase activity relative to DMSO) ([3]; 1 uM): 0.8592 | CMV-LACZ in Myoblasts (β-galactosidase activity relative to DMSO) ([3]; 5 uM): 1.0665 | CMV-LACZ in Myoblasts (β-galactosidase activity relative to DMSO) ([3]; 10 uM): 0.9905 | CMV-LACZ in Myoblasts (β-galactosidase activity relative to DMSO) ([3]; 20 uM): 0.3140 | CMV-LACZ in Myoblasts (β-galactosidase activity relative to DMSO) ([3]; 40 uM): 0.4437 | Burkin Assay in Myotubes, α7 integrin LacZ reporter signal relative to DMSO ([4]; 0.5 uM): 1.043 | Burkin Assay in Myotubes, α7 integrin LacZ reporter signal relative to DMSO ([4]; 1 uM): 0.9139 | Burkin Assay in Myotubes, α7 integrin LacZ reporter signal relative to DMSO ([4]; 5 uM): 0.8675 | Burkin Assay in Myotubes, α7 integrin LacZ reporter signal relative to DMSO ([4]; 10 uM): 0.8026 | Burkin Assay in Myotubes, α7 integrin LacZ reporter signal relative to DMSO ([4]; 20 uM): 0.7715 | Burkin Assay in Myotubes, α7 integrin LacZ reporter signal relative to DMSO ([4]; 40 uM): 0.7415

COc1cc(OC)c(/C=C2/C(=O)Nc3ccccc32)c(OC)c1 [NCGC00015546-04]
Burkin Assay in Myoblasts, value relative to DMSO ([1]; 0.5 uM): 0.8923 | Burkin Assay in Myoblasts, value relative to DMSO ([1]; 1 uM): 0.9228 | Burkin Assay in Myoblasts, value relative to DMSO ([1]; 5 uM): 0.3771 | Burkin Assay in Myoblasts, value relative to DMSO ([1]; 10 uM): 0.214 | Burkin Assay in Myoblasts, value relative to DMSO ([1]; 20 uM): 0.1937 | Burkin Assay in Myoblasts, value relative to DMSO ([1]; 40 uM): 0.1497 | CMV-LACZ in Myotubes, value relative to DMSO ([2]; 0.5 uM): 1.1555 | CMV-LACZ in Myotubes, value relative to DMSO ([2]; 1 uM): 1.1427 | CMV-LACZ in Myotubes, value relative to DMSO ([2]; 5 uM): 1.0553 | CMV-LACZ in Myotubes, value relative to DMSO ([2]; 10 uM): 1.1513 | CMV-LACZ in Myotubes, value relative to DMSO ([2]; 20 uM): 1.0230 | CMV-LACZ in Myotubes, value relative to DMSO ([2]; 40 uM): 1.0700 | CMV-LACZ in Myoblasts, value relative to DMSO ([3]; 0.5 uM): 1.1442 | CMV-LACZ in Myoblasts, value relative to DMSO ([3]; 5 uM): 1.4889 | CMV-LACZ in Myoblasts, value relative to DMSO ([3]; 10 uM): 1.2439 | CMV-LACZ in Myoblasts, value relative to DMSO ([3]; 20 uM): 0.8083 | CMV-LACZ in Myoblasts, value relative to DMSO ([3]; 40 uM): 0.5873 | Burkin Assay in Myotubes, value relative to DMSO ([4]; 0.5 uM): 0.9443 | Burkin Assay in Myotubes, value relative to DMSO ([4]; 1 uM): 1.051 | Burkin Assay in Myotubes, value relative to DMSO ([4]; 5 uM): 0.8529 | Burkin Assay in Myotubes, value relative to DMSO ([4]; 10 uM): 0.8253 | Burkin Assay in Myotubes, value relative to DMSO ([4]; 20 uM): 0.7881 | Burkin Assay in Myotubes, value relative to DMSO ([4]; 40 uM): 0.7965
